The source of these data is PMC5383040, “Inhibition of prenylated KRAS in a lipid environment” (PLoS ONE, 2017).

Read-outs that look alike come from different tables or passages of the source.

In experiment [1] the target is T1, GTPγS-loaded, prenylated KRAS^G12V (Homo sapiens, UniProt P01116, G12V).
T1 construct: made in house; host or cells: insect cells (Sf9, Sf21 or Tn5), baculovirus
Nature of the experiment: Coupled KRAS-BRAF-MEK assay (BRAF activation by KRAS, AlphaScreen pMEK readout). The experiment is classed as biochemical.

The target in a further experiment is T2, full length BRAF^V600E (Homo sapiens, UniProt P15056, V600E).
T2 construct: made in house; host or cells: insect cells (Sf9, Sf21 or Tn5), baculovirus pBlueBac4.5
T2 sequence (P15056 whole entry V600E): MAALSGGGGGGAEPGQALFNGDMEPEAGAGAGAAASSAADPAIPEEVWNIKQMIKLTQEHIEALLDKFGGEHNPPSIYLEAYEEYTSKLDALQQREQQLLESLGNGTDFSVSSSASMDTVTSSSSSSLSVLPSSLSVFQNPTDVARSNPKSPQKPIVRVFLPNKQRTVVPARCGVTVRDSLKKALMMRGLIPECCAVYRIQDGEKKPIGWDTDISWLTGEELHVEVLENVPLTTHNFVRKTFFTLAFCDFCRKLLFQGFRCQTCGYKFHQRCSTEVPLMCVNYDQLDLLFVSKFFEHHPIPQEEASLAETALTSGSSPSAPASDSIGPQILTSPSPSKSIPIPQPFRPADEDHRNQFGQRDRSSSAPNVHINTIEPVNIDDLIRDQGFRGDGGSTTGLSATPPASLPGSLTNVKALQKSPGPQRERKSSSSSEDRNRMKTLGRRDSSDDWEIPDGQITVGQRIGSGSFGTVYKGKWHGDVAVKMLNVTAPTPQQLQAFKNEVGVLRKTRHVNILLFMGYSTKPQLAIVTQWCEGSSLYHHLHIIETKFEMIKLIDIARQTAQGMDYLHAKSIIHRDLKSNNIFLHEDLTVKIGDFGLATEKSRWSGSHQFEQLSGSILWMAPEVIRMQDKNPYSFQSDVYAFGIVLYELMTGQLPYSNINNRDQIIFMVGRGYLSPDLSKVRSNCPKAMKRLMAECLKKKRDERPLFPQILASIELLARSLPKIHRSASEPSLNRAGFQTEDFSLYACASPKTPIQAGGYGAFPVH
Nature of the experiment: BRAF^V600E counter-screen (coupled assay lacking KRAS). Type of experiment: biochemical. On the procedure: An assay consisting of full length BRAF^V600E was used to flag inhibitors acting directly on BRAF, taking advantage of the constitutive activity of the BRAF mutant. […] The counter assay buffer, other components and order of addition matched the RAS-dependent assay except for the presence of KRAS. This assay was reproducible from run to run. […] After establishing reproducibility with this compound, all other compounds were measured with N≥2.
On the technique in general: The purpose of a counterscreen is to sort out artefacts and off-target activity.

The next experiment concerns SW1990 cells. The experiment is described as follows: Proliferation assay (CellTiter-Glo). Type of experiment: cell-based. The settings on record: Homo sapiens, 120 h, 5 days, read-out: Growth inhibition EC50. On the procedure: Cells were seeded in 384-well plates and incubated with a 1:3 serial dilution of compound starting from 30 μM at 37°C with 5% CO2 for 5 days. Cell viability was measured using the CellTiter-Glo® Luminescent Cell Viability Assay kit (Promega) and read on an Envision (Perkin Elmer) plate reader. Percent growth inhibition was calculated by normalizing treatment to DMSO control. […] For every compound, each concentration was run in triplicate and all points were used for fitting a single curve.
In general terms: ATP-based viability assays read luminescence as a measure of living cells.

For another experiment, the system named is SW1990 cells (KRAS^G12D). Nature of the experiment: Western blot analysis of pAKT and pERK in SW1990. The experiment is classed as cell-based, human. Particulars: 3hrs treatment, dose-response. The method, then: (§1) Cells were seeded in 6-well plates and treated with compounds or DMSO at the indicated concentrations for 3hrs. Total cell lysates were prepared in either M-PER (Pierce) or RIPA lysis buffer (50 mM Tris-HCl, pH 8.0, 150 mM NaCl, 0.5% NP-40, 0.5% sodium deoxycholate) supplemented with 1x protease inhibitor cocktail (Sigma) and 1x phosphatase inhibitor cocktails (Sigma). Lysates were normalized for protein concentration, resolved by SDS-PAGE, transferred onto nitrocellulose membranes and probed with the indicated antibodies.
For orientation: A western blot detects proteins with antibodies after separation by electrophoresis.

Experiment [2] has as its target T3, prenylated KRAS^G12V loaded with GTPγS (Homo sapiens, UniProt P01116, G12V).
T3 construct: Avi-tag-(Gly)8 –KRAS^G12V (2–188) was cloned into the pFastBac1 vector; made in house; host or cells: Tn5 insect cells, co-infected with BirA virus
Nature of the experiment: Biolayer interferometry (BLI) binding to full-length prenylated KRAS in PS. The settings on record: for binding in BLI studies: at 10 μM, full-length prenylated KRAS in PS.
Protocol: Determination of Kds was performed on the Octet RED platform, according to the manufacturer's recommendations in their application note on small molecule analysis. The prenylated KRAS peptide containing the farnesyl group attached to the terminal cysteine (biotin-[sequence](farnesyl)-OCH3) was obtained from AnaSpec (Fremont, California). […] After incubation for 1h at RT, the protein was loaded into a 96-well plate (Greiner 655209), and loaded a BLI response of 3-4nm. […] A reference sensor was run to remove systematic drift, and a second set of SuperStreptavidin biosensors blocked with biocytin was examined to remove systematic optical interferences, and to check for non-specific binding of compounds to the biosensor. Kds were determined using the ForteBio analysis software tool, which determines Kd from the steady-state plot, or from the determination of the kinetic constants kon and koff.

For experiment [3], the target named is T4, non-prenylated GDP-KRAS^G12V (Homo sapiens, UniProt P01116, G12V).
T4 construct: HSQC experiments were run with ^15N-labeled and GDP-loaded K-RAS^G12V (1–169)
Nature of the experiment: HSQC NMR binding / titration. The settings on record: non-processed GDP-loaded KRAS^G12V (1–169) in aqueous buffer, no PS; estimated from titration.
Protocol: (§2) The buffer contained 20mM Tris HCl, pH8.0, 50mM NaCl, 1mM MgCl2, 2mM DTT. […] 500 fragments from a fragment library [53] were screened by T1ρ ligand observation experiments, followed by protein-observed HSQC experiments. ^31P NMR spectra were acquired at 278°K on a Bruker AV400 spectrometer operating at 161.6 MHz ^31P frequency, equipped with a BBO probe.

For another experiment, the system named is A375 cells (BRAF^V600E). The experiment is described as follows: Western blot analysis of pAKT and pERK in A375. The experiment is classed as cell-based. The settings on record: 3hrs treatment. The method, then:
as §1

The target of experiment [4] is T5, non-prenylated GMPPNP-loaded KRAS^G12V (Homo sapiens, UniProt P01116, G12V).
T5 construct: HSQC experiments were run with ^15N-labeled and GDP-loaded K-RAS^G12V (1–169)
The experiment is described as follows: 31P-NMR conformational state of KRAS. Particulars: KRAS^G12V 5 mg/ml; 1 mM compound 2 or 0.5 mM CRAF-RBD.
Protocol: as §2

Another experiment has as its target T6, KRAS construct 1–180 (Homo sapiens, UniProt P01116, G12V).
T6 construct: (His)6-TEV (N, cleaved yes); made in house; host or cells: E. coli BL21 (DE3), co-transformed with BirA
The experiment is described as follows: BLI control with KRAS construct lacking the C-terminus. The settings on record: KRAS 1–180 lacking C-terminus and prenyl group, 10 μM compound. Type of experiment: binding.

For another experiment, the target named is T7, full-length KRAS (Homo sapiens, UniProt P01116, G12V).
T7 construct: Avi-tag-(Gly)8 –KRAS^G12V (2–188) was cloned into the pFastBac1 vector; made in house; host or cells: Tn5 insect cells, co-infected with BirA virus
Nature of the experiment: BLI control with full-length KRAS in the absence of PS. The experiment is classed as binding. On the procedure:
Determination of Kds was performed on the Octet RED platform, according to the manufacturer's recommendations in their application note on small molecule analysis. The prenylated KRAS peptide containing the farnesyl group attached to the terminal cysteine (biotin-[…](farnesyl)-OCH3) was obtained from AnaSpec (Fremont, California). Proteins were obtained as described above. […] The protein was attached to SuperStreptavidin biosensors (ForteBio 18–5057) via Avi-tagged-KRAS G12V:[…], followed by the KRAS protein to a final concentration of 40nM. After incubation for 1h at RT, the protein was loaded into a 96-well plate (Greiner 655209), and loaded a BLI response of 3-4nm. […] A reference sensor was run to remove systematic drift, and a second set of SuperStreptavidin biosensors blocked with biocytin was examined to remove systematic optical interferences, and to check for non-specific binding of compounds to the biosensor. Kds were determined using the ForteBio analysis software tool, which determines Kd from the steady-state plot, or from the determination of the kinetic constants kon and koff. […] After establishing reproducibility with compound 3, all other compounds were measured in singleton.

In experiment [5] the target is T8, 18-residue KRAS C-terminal prenylated peptide (Homo sapiens, UniProt P01116).
T8 construct: (biotin-[…](farnesyl)-OCH3) was obtained from AnaSpec (Fremont, California); purchased AnaSpec (Fremont, California); host or cells: synthetic peptide
The experiment is described as follows: BLI with KRAS C-terminal prenylated peptide in PS. The experiment is classed as binding. The method, then: Determination of Kds was performed on the Octet RED platform, according to the manufacturer's recommendations in their application note on small molecule analysis. The prenylated KRAS peptide containing the farnesyl group attached to the terminal cysteine (biotin-[…](farnesyl)-OCH3) was obtained from AnaSpec (Fremont, California). Proteins were obtained as described above. The assay buffer was 25mM Tris containing 190mM glycine, 5mM MgCl2, 0.01% Triton X-100, 1mM DTT and 1.3uM PS (liposome preparation as described above). The protein was attached to SuperStreptavidin biosensors (ForteBio 18–5057) via Avi-tagged-KRAS G12V:GTPγS with C-terminal prenylgroup by adding 2μL of the 5mg/mL solution of PS to 2mL of assay buffer, followed by the KRAS protein to a final concentration of 40nM. After incubation for 1h at RT, the protein was loaded into a 96-well plate (Greiner 655209), and loaded a BLI response of 3-4nm. […] Kds were determined using the ForteBio analysis software tool, which determines Kd from the steady-state plot, or from the determination of the kinetic constants kon and koff. […] After establishing reproducibility with compound 3, all other compounds were measured in singleton.

Experiment [6] deals with truncated GDP-loaded KRAS. The settings on record: cited from earlier work.
Details of experiment [7]: method as in PMID 22431598. Particulars: cited from earlier work.
Setting [8] is: GTPγS-loaded full-length prenylated KRAS^G12V in PS, geomean, read-out: Coupled assay IC50.
Where [9] appears, read: BRAF^V600E, no KRAS, geomean, read-out: Counter-screen IC50.
Setting [10] is: full-length prenylated GTPγS-loaded KRAS^G12V, PS liposomes, read-out: Kd BLI.
[11] abbreviates: non-processed GDP-loaded KRAS in aqueous buffer, read-out: Kd HSQC.

A word on the IC50: it is the midpoint of a concentration-inhibition curve. In general, EC50 refers to the concentration needed to bring the measured effect to its halfway point. As for `CC(C)NCC(O)COc1cccc2cc[nH]c12` (centres unmarked) [Compound 1], the IC50 in [1] (setting [8]) is 87 ± 22 µM; at full length BRAF^V600E (setting [9]) it was above 250 µM. For the same compound, the EC50 with SW1990 cells was above 30 µM. In the experiment on SW1990 cells (KRAS^G12D), the “effect on pAKT and pERK (cellular activity)” value (shortened to “effect on pAKT and pERK”) was “inactive at the concentrations tested”.

What is called Kd is the concentration at which binding is half-saturated. As for `O=C(N[C@H]1CCN[C@H](Cc2ccc(Cl)cc2)C1)c1c[nH]c2ccc(Br)cc12` [Compound 2], the values for the IC50 (in [1] (setting [8]); on full length BRAF^V600E (setting [9])) were 0.8 ± 0.7 µM and 85 ± 47 µM, respectively. Moreover, the “activity in the counter-screen” value on full length BRAF^V600E is on record as “minimal activity was observed”. For the same compound, in the experiment with SW1990 cells, the EC50 stood at 2.7 ± 1.4 µM. For the same compound, the “binding in BLI studies” value in [2] is on record as “minor non-specific binding”. Besides, the figures for the Kd in [2] (setting [10]) and in [3] were 0.8 µM and 690 µM, respectively. The “effect on pAKT and pERK” value in the experiment on SW1990 cells (KRAS^G12D) is on record as “dose-dependent decreases in phosphorylation of both of the pathway markers”. Moreover, the “effect on pAKT levels” value in the experiment on A375 cells (BRAF^V600E) is “unexpected pattern of modulation”. For the same compound, the “γ-phosphate population (conformational state) by 31P-NMR” value in experiment [4] was “shift to a single inactive population”.

For `Clc1ccc(C[C@@H]2C[C@@H](NCc3c[nH]c4ccccc34)CCN2)cc1` [Compound 3], the figures for the IC50 (in experiment [1] (setting [8]); on full length BRAF^V600E (setting [9])) were 1.2 µM and above 25 µM, respectively. Also, at full length BRAF^V600E, the “activity in the counter-screen” value is given as “minimal activity was observed”. Further, the EC50 with SW1990 cells is 1.2 µM. Moreover, in experiment [2] (setting [10]), the Kd was found to be 2.6 ± 0.8 µM. The “effect on pAKT and pERK” value in the experiment on SW1990 cells (KRAS^G12D) is “dose-dependent decreases in phosphorylation of both of the pathway markers”. For the same compound, in the experiment on A375 cells (BRAF^V600E), the “effect on pAKT levels” value is reported as “unexpected pattern of modulation”. Moreover, the “binding in BLI” value is “minimal binding was observed” at KRAS construct 1–180, “some binding was observed” on full-length KRAS (10 μM compound) and “no binding was observed” on full-length KRAS (up to 3.3 μM compound). For the same compound, the “binding to prenylated peptide in BLI” value in experiment [5] is “binds to the prenylated peptide in a concentration-dependent manner”.

As for `O=C(N[C@H]1CCN(Cc2ccc(O)nc2)C1)c1c[nH]c2ccc(Cl)cc12` [Compound 4], the “activity in the coupled assay” value in experiment [1] was “negligible biochemical activity”. The IC50 was 49 µM in experiment [1] (setting [8]) and 115 µM on full length BRAF^V600E (setting [9]). In addition, the EC50 with SW1990 cells is above 30 µM. Moreover, the “binding in BLI studies” value in [2] is on record as “did not bind”. Besides, the Kd in experiment [2] (setting [10]) is above 10 µM. Besides, the “effect on pAKT and pERK” value in the experiment on SW1990 cells (KRAS^G12D) is “inactive at the concentrations tested”. In addition, the “binding to prenylated peptide in BLI” value in [5] is “did not bind”.

With `Cc1[nH]c2cc(Cl)cc(Cl)c2c1CCN` [Compound 5, reference compound], the IC50 in experiment [1] is 7 µM; at full length BRAF^V600E, 29 µM. Besides, the EC50 in the experiment on SW1990 cells is 18 µM. Also, the Kd in experiment [2] was 34 µM; in experiment [6] (absence of a lipid environment, read-out: published Kd to truncated GDP-loaded KRAS), 1000 µM; in [6] (setting [11]), 1100 µM. For the same compound, the “effect on pAKT and pERK” value with SW1990 cells (KRAS^G12D) is “double-digit μM potency in cells”. Besides, in [7], the “potency in cell-based assays” value is 16 µM.

As to `O=C(Nc1ccc2nc(Cc3c[nH]c4ccccc34)[nH]c2c1)C1CCCN1` (centres unmarked) [Compound 6, reference compound], the “activity in the coupled assay” value in experiment [1] was “negligible activity”. For the same compound, the “activity in the counter-screen” value at full length BRAF^V600E was “negligible activity”. Also, the IC50 on full length BRAF^V600E (setting [9]) is 134 µM. For the same compound, the EC50 in the experiment on SW1990 cells was above 30 µM. Also, the “effect on pAKT and pERK” value in the experiment with SW1990 cells (KRAS^G12D) is “inactive in cells”. For the same compound, in experiment [6] (setting [11]), the Kd was 340 µM.
